Test results published in US8501424B2, “Cd4+ epitopes of bone morphogenetic proteins” (Danisco US Inc., priority 2003, dated 2013).

Columns and labels:
[1] = tested on: HLA Class II antigens at DRB1 and DQB1; experiment: HLA associations of proliferative responses to epitope peptides; type: cell-based, human; conditions: for relative risk (RR): 83 donors
Procedure: In addition to the above analyses, the HLA associations with BMP-7 and BMP-14 epitope peptides were determined. In these experiments, the proliferative response data to five epitope peptides (#3, #7, #8, #16 and #31) were tested in 83 donors for which the expression of HLA Class II antigens at DRB1 and DQB1 was also tested. For four of the peptides, the reaction was assessed by two methods (i.e., “QC” and “non-QC,” “[nQC”] as described above). The statistically significant associations found by both methods were as follows. For epitope #3 and DR11, the relative risk (RR) was 6.25; p<0.0005 [QC], RR=4.17 p<0.005 [nQC]. For epitope #3 and DQ2, the RR was 0.17 p<0.04 [QC], RR=0.13 p<0.01 [nQC]. For epitope #3 and DQ9, the RR was 6.67 p<0.003 [QC]; RR=4.85 p<0.013 [nQC]. For epitope #8 and DR11, the RR was 6.6 p<0.0003. For epitope #31 and DR7, the RR was 8.32 p<0.001 [QC]; RR=4.44 p<0.002 [nQC].
In addition the average stimulation index (SI) was higher among DR11+ than among DR11− donors for peptide #3 (QC) (5.8 fold, p<0.0004) and peptide #8 (2.3 fold p<0.007). Also the average SI was higher among DR7+ than among DR7− donors for peptide #31 (QC) (2.7 fold p<0.0007).

[2] = tested on: CD4+ T-cells; experiment: I-MUNE T-cell proliferation assay (dendritic cells + autologous CD4+ T-cells + 15-mer peptides, tritiated thymidine); type: cell-based, human; parameters: key to epitope designation: major: response rate within the tested donor pool is at least three standard deviations above the mean background response rate; moderate: response rate within the tested donor pool is at least two standard deviations above the mean or three times the background; minor: response rate within the tested donor pool is at least twice the background; conditions: 83 donors; for structure value: 15-mer peptide sets, 5 μg/ml, positive response SI >= 2.95, analysis method (QC/non-QC) not stated at place
Text: Full length amino acid sequences of human BMP-7 (GenBank Accession No. P18075) and BMP-14 (GenBank Accession No. P43026) precursor proteins were used to create 15-mer peptide sets. These variant peptides were synthesized by Mimotopes, using the multi-pin synthesis technique known in the art (See e.g., Maeji et al., J. Immunol. Meth., 134:23-33 [1990]). The 15-mer peptides were created such that sequences with adjacent peptides shared 12 amino acids (i.e., each peptide was offset by three amino acids). Peptides were diluted with DMSO to provide a stock concentration of approximately 2 mg/ml. The final concentration of peptides used in each assay was 5 μg/ml.
Fresh human peripheral blood cells were collected from 83 community donors. These cells were tested to determine antigenic epitopes in BMP-7 and BMP-14, as described in Example 3, below.
Peripheral mononuclear blood cells (PBMCs) (stored at room temperature, no older than 24 hours) were prepared for use as follows. PBMCs were isolated from buffy coat material by centrifuging over an underlay of LYMPHOPREP™ at 1000×g for 30 minutes. The interface layer was collected and washed and counted using the CELL-DYN® 3700 System (Abbott). Then, suspensions containing 10^8 PBMCs resuspended in 30 ml of AIM-V (Invitrogen) were prepared and the cells were allowed to adhere to plastic T-75 culture flasks for two hours. The remainder of the cells were frozen at 5×10^7 cells/ml in 90% FCS (Gibco/BRL) and 10% DMSO (Sigma).
After the two hour PBMC incubation period, non-adherent cells were removed from the culture flasks. The adherent cells were cultured in the flasks with 800 units/ml recombinant human GM-CSF (Endogen) and 100 units/ml recombinant human IL4 (Endogen) at 37° C., 5% CO2. On day 5 of incubation, 50 units/ml recombinant human Il-1α (Endogen) and 0.2 units/ml recombinant human TNF-α were added to the cultures. Adherent and non-adherent dendritic cells were harvested, washed, and counted on day 7, following a one-hour treatment with […] mitomycin C (Sigma) and 10 mM EDTA.
Autologous CD4+ T-cells were prepared from frozen aliquots of PBMCs. After thawing and washing in DPBS, CD4+ T-cells were isolated using a commercially available CD4 negative selection kit (Dynal), according to the manufacturer's instructions. Cells were counted using the Abbott CELL-DYN® 3700 System. The purity obtained using these methods was generally found to be greater than 90%.
This Example describes the assay system used in the present invention. This test system is also referred to as the “I-MUNE®” assay system. In 96-well, round bottom plates, autologous dendritic cells and CD4+ T-cells were combined with test peptides. More specifically, in a volume of 100 μl/well, 2×10^4 dendritic cells in AIM V were combined with individual peptides (at a final peptide concentration of 5 μg/ml and a final DMSO concentration of 0.25%). After a one-hour incubation at 37° C., 5% CO2, 2×10^5 CD4+ T-cells were added to the culture for a total volume of 200 μl. Negative control wells contained dendritic cells, CD4+ T-cells and 0.25% DMSO. Positive control wells contained dendritic cells, CD4+ T-cells (at the same concentrations as the test wells) and 0.25% DMSO with 0.4 μg/ml tetanus toxoid (List). Individual peptides were tested in duplicate for each donor.
After 5 days of incubation at 37° C., 5% CO2, the cultures were pulsed with 0.25 μCi/well tritiated thymidine (Perkin Elmer). After a subsequent 24 hours of incubation, plates were harvested and assessed for incorporation of the tritiated thymidine (i.e., T-cell proliferation) using a Wallac MICROBETA® TriLux liquid scintillation counter (Perkin Elmer).
For each individual buffy coat sample, the average CPM values for all of the peptides were analyzed. The average CPM values for each peptide were divided by the average CPM value for the control (DMSO only) wells to determine the “stimulation index” (SI). […]

[3] = patients treated for spinal problems; cited from earlier work

Molecule: SPISILFIDSANNVV (BMP-14 epitope) [Peptide 31]
- relative risk (RR) ([1]; DR7, QC, p<0.001): 8.32
- relative risk (RR) ([1]; DR7, nQC, p<0.002): 4.44
- average SI higher among DR7+ than among DR7− donors ([1]; QC, p<0.0007): 2.7 fold

Molecule: SHLEPTNHAVIQTLM (BMP-14 epitope) [Peptide 20]
- epitope designation [2]: minor
- statistical significance of peptide response (Poisson, cut-off p<0.05) ([2]; QC method): did not reach the p<0.05 cut-off

Molecule: RSQNRSKTPKNQEAL (BMP-7 epitope) [Peptide 3]
- relative risk (RR) ([1]; DQ2, QC, p<0.04): 0.17
- relative risk (RR) ([1]; DQ2, nQC, p<0.01): 0.13
- relative risk (RR) ([1]; DQ9, QC, p<0.003): 6.67
- relative risk (RR) ([1]; DQ9, nQC, p<0.013): 4.85
- relative risk (RR) ([1]; DR11, QC, p<0.0005): 6.25
- relative risk (RR) ([1]; DR11, nQC, p<0.005): 4.17
- average stimulation index (SI) higher among DR11+ than among DR11− donors ([1]; QC, p<0.0004): 5.8 fold

Molecule: PLRSHLEPTNHAVIQ (BMP-14 epitope) [Peptide 19]
- epitope designation [2]: minor
- statistical significance of peptide response (Poisson, cut-off p<0.05) ([2]; QC method): did not reach the p<0.05 cut-off

Molecule: SNVILKKYRNMVVRA (BMP-7 epitope) [Peptide 41]
- epitope designation [2]: minor
- statistical significance of peptide response (Poisson, cut-off p<0.05) ([2]; QC method): did not reach the p<0.05 cut-off

Molecule: RMANVAENSSSDQRQ (BMP-7 epitope) [Peptide 8]
- relative risk (RR) ([1]; DR11, method not stated, p<0.0003): 6.6
- average stimulation index (SI) higher among DR11+ than among DR11− donors ([1]; method not stated, p<0.007): 2.3 fold

B1: BMP-14: human BMP-14 (GenBank Accession No. P43026), tested as 15-mer peptide set (protein, UniProt P43026 382-501, looked up)
Growth/differentiation factor …: APLATRQGKRPSKNLKARCSRKALHVNFKDMGWDDWIIAPLEYEAFHCEGLCEFPLRSHLEPTNHAVIQTLMNSMDPESTPPTCCVPTRLSPISILFIDSANNVVYKQYEDMVVESCGCR
modifications: tested as overlapping 15-mer peptides
- structure value [2]: 0.57

B2: BMP-7: human BMP-7 (GenBank Accession No. P18075), tested as 15-mer peptide set (protein, UniProt P18075 293-431, looked up)
Bone morphogenetic protein 7: STGSKQRSQNRSKTPKNQEALRMANVAENSSSDQRQACKKHELYVSFRDLGWQDWIIAPEGYAAYYCEGECAFPLNSYMNATNHAIVQTLVHFINPETVPKPCCAPTQLNAISVLYFDDSSNVILKKYRNMVVRACGCH
modifications: tested as overlapping 15-mer peptides
- treated patients who developed detectable anti-BMP antibodies [3]: 38%
- structure value [2]: 0.70
- relative immunogenicity by structure values ([2]; QC method): more immunogenic than BMP-14
- relative immunogenicity ([2]; non-QC method): more immunogenic than the BMP-14 protein
